Values quoted from earlier work in US7604823B2, “Synergistic HIV/AIDS and/or immune disease phyto-nutraceutical composition” (priority 2006, dated 2009).
“Also recorded” adds a separate entry of the source.

Key:
[1] = tested on: bacterial resistance mechanism (multidrug pump); settings: in the presence of 5′-MHC
HIV-1 PR = HIV-1 PR (Human immunodeficiency virus type 1 group M subtype B, UniProt P04585)
HIV [2] = settings: after administration, no antiretroviral medications
HIV-1 [3] = tested on: HIV-1
HIV [4] = tested on: HIV
[5] = molecular target: HIV-1 reverse transcriptase (Human immunodeficiency virus type 1 group M subtype B, UniProt P04585)
[6] = tested on: HIV-1-infected cells (CEM/LAV-1)
HIV [7] = settings: human, in vivo
[8] = tested on: HIV-1 LTR-directed gene expression; settings: concentrations that have minor effects on cells
[9] = tested on: cells either acutely or chronically infected with HIV-1; settings: cells acutely or chronically infected with HIV-1
HIV-1 [10] = settings: prolonged period

Compound: COc1cc([C@H]2Oc3cc(-c4cc(=O)c5c(O)cc(O)cc5o4)cc(OC)c3O[C@@H]2CO)ccc1O (racemic) [5′-MHC, 5′-methoxyhydnocarpin]
- accumulation of berberine in the cells [1]: strong increase

Compound: C[C@H](CC(=O)C[C@@H](C)[C@H]1CC(=O)[C@@]2(C)C3=C(C(=O)C[C@]12C)[C@@]1(C)CCC(=O)C(C)(C)[C@@H]1C[C@@H]3O)C(=O)O [ganoderic acid C1]
- inhibition of HIV-1 protease (HIV-1 PR): moderately active

Compound: CC(=O)OC1C(=O)C2=C(C(=O)CC3C(C)(C)[C@@H](O)CC[C@]23C)[C@]2(C)[C@H](O)C[C@H]([C@H](C)CC(=O)CC(C)C(=O)O)[C@@]12C (stereo partly drawn) [ganoderic acid alpha]
- inhibition of HIV-1 protease (HIV-1 PR): moderately active

Compound: CC(CC(=O)C[C@@H](C)[C@H]1C[C@H](O)[C@@]2(C)C3=C(C(=O)C[C@]12C)[C@@]1(C)CCC(=O)C(C)(C)[C@@H]1CC3)C(=O)O (stereo partly drawn) [ganolucidic acid A]
- inhibition of HIV-1 protease (HIV-1 PR): significant

Compound: C=C1CC[C@@H]2[C@](C)(CO)[C@H](O)CC[C@@]2(C)[C@@H]1C/C=C1/C(=O)OC[C@H]1O [andrographolide]
- mean CD4(+) lymphocyte level of HIV subjects (HIV [2]): significant rise

Compound: C[C@H](CCC=C(CO)CO)[C@H]1CC[C@@]2(C)C3=CC[C@H]4C(C)(C)C(=O)CC[C@]4(C)C3=CC[C@]12C [Ganoderiol F]
- activity as anti-HIV-1 agents (HIV-1 [3]): active

Compound: lentinan
- tolerability (HIV [4]; HIV-positive patients): good tolerability
- CD4 cells (HIV [4]; human, in vivo): trend toward increases

Compound: COc1ccc2cc3[n+](cc2c1OC)CCc1cc2c(cc1-3)OCO2 [Berberine]
- inhibition of HIV-1 reverse transcriptase [5]: inhibits

Compound: CC(=O)O[C@@H]1C(=O)C2=C(C(=O)C[C@H]3C(C)(C)[C@@H](O)CC[C@]23C)[C@]2(C)C(=O)C[C@H]([C@H](C)CC(=O)CC(C)C(=O)O)[C@@]12C (stereo partly drawn) [ganoderic acid H]
- inhibition of HIV-1 protease (HIV-1 PR): moderately active

Compound: C/C(=C\CC[C@@H](C)[C@H]1CC(=O)[C@@]2(C)C3=C(C(=O)C[C@]12C)[C@@]1(C)CC[C@H](O)C(C)(C)[C@@H]1C[C@@H]3O)C(=O)O [Ganoderic acid beta]
- inhibition of HIV-1 protease (HIV-1 PR): significant

Compound: CC(CC(=O)C[C@@H](C)[C@H]1CC(=O)[C@@]2(C)C3=C(C(=O)C[C@]12C)[C@@]1(C)CC[C@H](O)C(C)(C)[C@@H]1C[C@@H]3O)C(=O)O (stereo partly drawn) [ganoderic acid B]
- inhibition of HIV-1 protease (HIV-1 PR): moderately active

Compound: C[C@H](CC[C@H](O)C(C)(O)CO)[C@H]1CC[C@@]2(C)C3=CC[C@H]4C(C)(C)[C@@H](O)CC[C@]4(C)C3=CC[C@]12C (stereo partly drawn) [ganoderiol A]
- inhibition of HIV-1 protease (HIV-1 PR): moderately active

Compound: C=CCO [allyl alcohol]
- cell proliferation of HIV-1-infected cells [6]: strongly depressed; also recorded: completely inhibited

Compound: C[C@H](CCC=C(CO)CO)[C@H]1C[C@H](O)[C@@]2(C)C3=CC[C@H]4C(C)(C)C(=O)CC[C@]4(C)C3=CC[C@]12C [ganoderiol B]
- inhibition of HIV-1 protease (HIV-1 PR): moderately active

Compound: C=CCSSCC=C [Allyl disulfide]
- cell proliferation of HIV-1-infected cells [6]: strongly depressed

Compound: CO[C@@H]1C=C2[C@@H]3CC[C@H]([C@H](C)C=C[C@H](C)C(C)C)[C@@]3(C)CC[C@@H]2[C@@]2(C)CC[C@H](O)C[C@]12O [3 beta-5 alpha-dihydroxy-6beta-methoxyergosta-7,22-diene]
- inhibition of HIV-1 protease (HIV-1 PR): moderately active

Compound: O=c1[nH]cnc2c1ncn2[C@H]1CC[C@@H](CO)O1 [ddI, didanosine]
- mean change of CD4 cells/mm3 (HIV [7]): decrease

Compound: CC1(C)CCC2=C(O1)c1ccccc1C(=O)C2=O [beta-lapachone]
- inhibition of HIV-1 LTR-directed gene expression [8]: potent and selective inhibitor
- p24 antigen production [9]: inhibited

Compound: Cc1cn([C@H]2C[C@H](N=[N+]=[N-])[C@@H](CO)O2)c(=O)[nH]c1=O [ZDV, zidovudine]
- CD4+ T cell counts (HIV-1 [10]): decreased

Compound: C[C@H](CC[C@H](O)C(C)(C)O)[C@H]1CC[C@@]2(C)C3=CC[C@H]4C(C)(C)C(=O)CC[C@]4(C)C3=CC[C@]12C [ganodermanondiol]
- inhibition of HIV-1 protease (HIV-1 PR): significant

Compound: C[C@H](CC[C@H](O)[C@](C)(O)CO)[C@H]1CC[C@@]2(C)C3=CC[C@H]4C(C)(C)C(=O)CC[C@]4(C)C3=CC[C@]12C [ganodermanontriol]
- activity as anti-HIV-1 agents (HIV-1 [3]): active
- inhibition of HIV-1 protease (HIV-1 PR): significant
